Data reported in ChEMBL document CHEMBL4765332, “A multi-scale systems pharmacology approach uncovers the anti-cancer molecular mechanism of Ixabepilone” (Eur J Med Chem, 2020).
The source made the active and inactive calls.

How the values were obtained:
[1] = tested on: BT-549; assay: Cytotoxicity against human BT-549 cells at 0.1 to 1.6 uM measured after 48 hrs in presence of 2 mM autophagy inhibitor, 3-methyladenine by CCK8 assay; type: functional, cell-based; conditions: dose 0.1-1.6 µM
[2] = target: T1, Apoptosis regulator Bcl-2 (Homo sapiens, UniProt P10415); assay: Induction of Bcl-2 phosphorylation-mediated protein degradation in human MDA-MB-231 cells assessed as decrease in Bcl-2 expression measured after 48 hrs by western blot analysis; type: cell-based; conditions: dose 0.05-0.4 µM
T1 sequence (P10415 whole entry): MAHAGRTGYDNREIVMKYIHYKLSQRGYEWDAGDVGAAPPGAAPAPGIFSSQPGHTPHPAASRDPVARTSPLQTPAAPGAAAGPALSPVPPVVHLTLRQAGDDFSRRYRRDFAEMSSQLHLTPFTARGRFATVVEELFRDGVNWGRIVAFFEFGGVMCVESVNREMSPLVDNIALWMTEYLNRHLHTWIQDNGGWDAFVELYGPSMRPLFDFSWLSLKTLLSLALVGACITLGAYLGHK

[3] = target: T1, Apoptosis regulator Bcl-2; assay: Induction of Bcl-2 phosphorylation-mediated protein degradation in human HepG2 cells assessed as decrease in Bcl-2 expression at 0.4 to 6.4 uM measured after 48 hrs by western blot analysis; type: cell-based; conditions: dose 0.4-6.4 µM
[4] = tested on: U-251; assay: Induction of autophagy in human U251 cells assessed as increase in LC3-II expression at 0.4 to 6.4 uM measured after 48 hrs by western blot analysis; type: functional, cell-based; conditions: dose 0.4-6.4 µM
[5] = target: T1, Apoptosis regulator Bcl-2; assay: Upregulation of Bcl-2 phosphorylation at Ser70 residue in human MDA-MB-231 cells at 0.05 to 0.4 microM incubated for 48 hrs by western blot analysis; type: cell-based; conditions: dose 0.05-0.4 µM
[6] = tested on: MDA-MB-231; assay: Antitumor activity against human MDA-MB-231 cells xenografted in BALB/c mouse assessed as tumor growth inhibition at 3 mg/kg, ip administered with compound every other day and with 10 mg/kg, ip CQ every day and measured every 3 days by vernier caliper analysis; type: functional, organism-based
[7] = tested on: BT-549; assay: Induction of autophagy in human BT-549 cells expressing mRFP-EGFP-LC3B assessed as accumulation of yellow fluorescence signals measured after 12 hrs by fluorescence microscopic analysis; type: functional, cell-based
[8] = tested on: BT-549; assay: Induction of autophagy in human BT-549 cells assessed as increase in LC3-II level measured after 48 hrs by Western blot analysis; type: functional, cell-based; conditions: dose 0.05-0.4 µM
[9] = tested on: BT-549; assay: Induction of autophagy in human BT-549 cells assessed as increase in LC3-II level at 0.1 uM by Western blot analysis; type: functional, cell-based; conditions: time 12-48 hrs, TDE = time-dependent effect
[10] = target: T1, Apoptosis regulator Bcl-2; assay: Induction of Bcl-2 phosphorylation-mediated protein degradation in human BT549 cells assessed as decrease in Bcl-2 expression at 0.1 to 0.2 uM pretreated with proteasome inhibitor, MG132 for 2 hrs followed by incubation with compound for 48 hrs by western blot analysis; type: cell-based; conditions: BT-549, dose 0.1-0.2 µM
[11] = target: T1, Apoptosis regulator Bcl-2; assay: Induction of Bcl-2 phosphorylation-mediated protein degradation in human MDA-MB-231 cells assessed as disruption of Bcl2/Beclin1 interaction at 0.2 uM measured after 48 hrs by co-immunoprecipitation analysis; type: cell-based
[12] = target: T1, Apoptosis regulator Bcl-2; assay: Induction of Bcl-2 phosphorylation-mediated protein degradation in human MCF7 cells assessed as decrease in Bcl-2 expression at 0.1 uM by western blot analysis; type: cell-based; conditions: time 12-48 hrs, TDE = time-dependent effect
[13] = tested on: BT-549; assay: Cytotoxicity against human BT-549 cells at 0.1 to 1.6 uM measured after 48 hrs in presence of 20 uM autophagy inhibitor, chloroquine by CCK8 assay; type: functional, cell-based; conditions: dose 0.1-1.6 µM
[14] = target: T1, Apoptosis regulator Bcl-2; assay: Induction of Bcl-2 phosphorylation-mediated protein degradation in human HepG2 cells assessed as decrease in Bcl-2 expression at 0.4 uM measured after 12 to 48 hrs by western blot analysis; type: cell-based; conditions: time 12-48 hrs
[15] = tested on: HepG2; assay: Induction of autophagy in human HepG2 cells assessed as increase in LC3-II expression at 0.4 to 6.4 uM measured after 48 hrs by western blot analysis; type: functional, cell-based; conditions: dose 0.4-6.4 µM
[16] = tested on: MDA-MB-231; assay: Induction of autophagy in human MDA-MB-231 cells transfected with Beclin1 siRNA assessed as LC3-II level at 0.1 uM by western blot analysis; type: functional, cell-based
[17] = target: T1, Apoptosis regulator Bcl-2; assay: Induction of Bcl-2 phosphorylation-mediated protein degradation in human U251 cells assessed as decrease in Bcl-2 expression at 0.4 uM measured after 12 to 48 hrs by western blot analysis; type: cell-based; conditions: U-251, time 12-48 hrs
[18] = tested on: MDA-MB-231; assay: Induction of apoptosis in human MDA-MB-231 cells assessed as increase in cleaved PARP level pretreated with 20 uM autophagy inhibitor, CQ for 1 hr followed by incubation with drug for 48 hrs by western blot analysis; type: functional, cell-based
[19] = target: T1, Apoptosis regulator Bcl-2; assay: Upregulation of Bcl-2 phosphorylation at Ser70 residue in human MDA-MB-231 cells at 0.1 microM incubated for 12 to 36 hrs by western blot analysis; type: cell-based; conditions: time 12-36 hrs
[20] = target: T1, Apoptosis regulator Bcl-2; assay: Induction of Bcl-2 phosphorylation-mediated protein degradation in human MCF7 cells assessed as decrease in Bcl-2 expression measured after 48 hrs by western blot analysis; type: cell-based; conditions: dose 0.05-0.4 µM
[21] = tested on: BT-549; assay: Induction of apoptosis in human BT-549 cells assessed as late apoptotic cells incubated for 48 hrs in presence of 20 uM autophagy inhibitor, CQ by AnnexinV-FITC and propidium iodide staining based flow cytometry analysis(reference value: 2.64%); type: functional
[22] = target: T1, Apoptosis regulator Bcl-2; assay: Upregulation of Bcl-2 phosphorylation at Ser70 residue in human BT549 cells at 0.05 to 0.4 microM incubated for 48 hrs by western blot analysis; type: cell-based; conditions: BT-549, dose 0.05-0.4 µM
[23] = tested on: MDA-MB-231; assay: Induction of autophagy in human MDA-MB-231 cells assessed as increase in LC3-II level measured after 48 hrs by Western blot analysis; type: functional, cell-based; conditions: dose 0.05-0.4 µM
[24] = tested on: MCF7; assay: Induction of autophagy in human MCF-7 cells assessed as increase in LC3-II level measured after 48 hrs by Western blot analysis; type: functional, cell-based; conditions: dose 0.05-0.4 µM
[25] = tested on: BT-549; assay: Induction of autophagy in human BT-549 cells transfected with GFP-LC3 assessed as increase in GFP-LC3 puncta formation after 12 hrs by fluorescence microscopic analysis; type: functional, cell-based
[26] = tested on: U-251; assay: Induction of autophagy in human U251 cells assessed as increase in LC3-II expression at 0.4 uM measured after 12 to 48 hrs by western blot analysis; type: functional, cell-based; conditions: time 12-48 hrs
[27] = target: T1, Apoptosis regulator Bcl-2; assay: Induction of Bcl-2 phosphorylation-mediated protein degradation in human U251 cells assessed as decrease in Bcl-2 expression at 0.4 to 6.4 uM measured after 48 hrs by western blot analysis; type: cell-based; conditions: U-251, dose 0.4-6.4 µM
[28] = tested on: BT-549; assay: Induction of apoptosis in human BT-549 cells assessed as increase in cleaved PARP level pretreated with 20 uM autophagy inhibitor, CQ for 1 hr followed by incubation with drug for 48 hrs by western blot analysis; type: functional, cell-based
[29] = tested on: BT-549; assay: Induction of apoptosis in human BT-549 cells transfected with Beclin1 siRNA assessed as increase in cleaved caspase-3 level measured after 48 hrs by western blot analysis; type: functional, cell-based
[30] = target: T1, Apoptosis regulator Bcl-2; assay: Induction of Bcl-2 phosphorylation-mediated protein degradation in human MCF7 cells assessed as decrease in Bcl-2 expression at 0.1 to 0.2 uM pretreated with proteasome inhibitor, MG132 for 2 hrs followed by incubation with compound for 48 hrs by western blot analysis; type: cell-based; conditions: dose 0.1-0.2 µM
[31] = tested on: MDA-MB-231; assay: Induction of autophagy in human MDA-MB-231 cells assessed increase in LC3-II level at 0.1 to 0.2 uM preincubated with 20 uM autophagosome-lysosome fusion inhibitor, chloroquine for 1 hr followed by incubation with compound for 48 hrs by western blot analysis; type: functional, cell-based; conditions: dose 0.1-0.2 µM
[32] = target: T1, Apoptosis regulator Bcl-2; assay: Upregulation of Bcl-2 phosphorylation at Ser70 residue in human MCF7 cells at 0.1 microM incubated for 12 to 36 hrs by western blot analysis; type: cell-based; conditions: time 12-36 hrs

Measured: Activity

C/C(=C\c1csc(C)n1)[C@@H]1C[C@@H]2O[C@]2(C)CCC[C@H](C)[C@H](O)[C@@H](C)C(=O)C(C)(C)[C@@H](O)CC(=O)N1 [IXABEPILONE]
18%: [21]
inactive: [10] | [16] | [30]
active: [1] | [2] Dose-dependent effect | [3] | [4] | [5] | [6] | [7] | [8] Dose-dependent effect | [9] Tde | [11] | [12] Tde | [13] | [14] | [15] | [17] | [18] | [19] | [20] Dose-dependent effect | [22] | [23] Dose-dependent effect | [24] Dose-dependent effect | [25] | [26] | [27] | [28] | [29] | [31] | [32]
